{"source": "patent US20170087562A1", "about": "“METHOD FOR DETERMINING TREATMENT RESPONSE OF CELLS” (NATIONAL CHENG KUNG UNIVERSITY, priority 2015, published 2017)", "key": {"lung cancer cells AS2 [1]": {"test_system": "lung cancer cells AS2", "experiment": "Corresponding cell analysis after Taxol (cell death, proliferation inhibition/cells kill)", "format": "cell-based", "source_text": "The moving speed of the cell can be obtained by analyzing the moving distance perpendicular to the electrode at different time points. […]. […] The treatment response includes proliferation inhibition/cells kill which are the important indicators for determining whether the chemotherapy is effective on clinical. Therefore, the conclusion of the treatment response of cells to the treatment method can be obtained fast by using electrorotation, and the treatment effect of the clinical treatment can be estimated with high reliability, so that the analysis period indeed can be substantially shorten (24 hrs v.s. 48 hrs)."}, "lung cancer cells AS2 [2]": {"test_system": "lung cancer cells AS2", "experiment": "Traveling-wave dielectrophoresis moving speed of cells after Taxol", "format": "cell-based", "conditions": "24 hours after treatment", "source_text": "The principle of the traveling-wave dielectrophoresis is similar with the electrorotation. The test cells can be pushed away by the electrodes when applying a negative electrophoresis force (nDEP) through two set of parallel electrode 13 and 14, so that the influence on the moving condition resulting from the friction between the test cells and chip surface can be reduced. The two set of parallel electrode 13 and 14 individually include several electrodes having a width ranged from 0.1 to 1000 microns, preferably 0.5 to 100 microns, for example 1 micron, 20 microns, 40 microns, 50 microns, or 60 microns; the width of the intervals ranged from 0.1 to 1000 microns, preferably 0.5 to 100 microns, for example 1 micron, 20 microns, 40 microns, 50 microns, or 60 microns. Moreover, in this uneven electric field, the electric signal has a periodic variation in value and direction (such as a sine wave), for example, 360/N of sine wave signal are subsequently applied to the parallel electrodes, wherein N is preferably equal to 4, so that the sine wave of the electrodes have intervals of 90 degrees from each other, but N is not limited thereto. The wave signal of each electrode continuously changes the phase thereof by time to provide the source of the moving force for traveling-wave electrophoresis. […]"}}, "data": [{"compound": "CC(=O)O[C@H]1C(=O)[C@@]2(C)[C@H]([C@H](OC(=O)c3ccccc3)[C@]3(O)C[C@H](OC(=O)[C@H](O)[C@@H](NC(=O)c4ccccc4)c4ccccc4)C(C)=C1C3(C)C)[C@]1(OC(C)=O)CO[C@@H]1C[C@@H]2O", "note": "[Taxol]", "values": [{"measurement": "proliferation inhibition/cells kill", "setting": "lung cancer cells AS2 [1]; 24 hours", "value": "obvious"}, {"measurement": "cell death", "setting": "lung cancer cells AS2 [1]; 48 hours", "value": "obvious"}, {"measurement": "proliferation inhibition/cells kill", "setting": "lung cancer cells AS2 [1]; 48 hours", "value": "obvious"}, {"measurement": "moving speed versus placebo (only DMSO)", "setting": "lung cancer cells AS2 [2]", "value": "much slower"}]}]}
